The values below come from ChEMBL document CHEMBL5678818, “Discovery of potent SOS1 inhibitors that block RAS activation via disruption of the RAS-SOS1 interaction” (Proc Natl Acad Sci U S A, 2019).

Assay [1] deals with Tyrosine-protein kinase ABL1 (Homo sapiens), P00519 [H396P]. Kind of assay: Inhibition of phosphorylated ABL1 H396P mutant (unknown origin) assessed as residual activity at 100 nM by KINOMEscan analysis relative to control.
The test system of assay [2] is Tyrosine-protein kinase ABL1 (Homo sapiens), P00519 [M351T]. Briefly: Inhibition of phosphorylated ABL1 M351T mutant (unknown origin) assessed as residual activity at 100 nM by KINOMEscan analysis relative to control.
For assay [3], the target named is Mitogen-activated protein kinase 3 (Homo sapiens) (UniProt P27361). Briefly: Inhibition of ERK1 (unknown origin) assessed as residual activity at 100 nM by KINOMEscan analysis relative to control.
Sequence of Mitogen-activated protein kinase 3 (Homo sapiens) (P27361 whole entry): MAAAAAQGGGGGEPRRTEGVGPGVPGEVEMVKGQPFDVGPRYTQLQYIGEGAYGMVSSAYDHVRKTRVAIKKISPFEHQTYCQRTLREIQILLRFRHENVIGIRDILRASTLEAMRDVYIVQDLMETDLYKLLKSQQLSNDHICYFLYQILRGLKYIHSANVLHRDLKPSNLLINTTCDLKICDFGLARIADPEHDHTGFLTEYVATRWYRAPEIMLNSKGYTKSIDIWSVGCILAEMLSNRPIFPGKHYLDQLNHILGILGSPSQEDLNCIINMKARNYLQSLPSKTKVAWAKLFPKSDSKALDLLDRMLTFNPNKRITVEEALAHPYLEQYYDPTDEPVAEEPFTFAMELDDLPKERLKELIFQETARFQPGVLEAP
Assay [4] deals with T1, Interleukin-1 receptor-associated kinase 4 (Homo sapiens) (UniProt Q9NWZ3).
T1 sequence (whole entry): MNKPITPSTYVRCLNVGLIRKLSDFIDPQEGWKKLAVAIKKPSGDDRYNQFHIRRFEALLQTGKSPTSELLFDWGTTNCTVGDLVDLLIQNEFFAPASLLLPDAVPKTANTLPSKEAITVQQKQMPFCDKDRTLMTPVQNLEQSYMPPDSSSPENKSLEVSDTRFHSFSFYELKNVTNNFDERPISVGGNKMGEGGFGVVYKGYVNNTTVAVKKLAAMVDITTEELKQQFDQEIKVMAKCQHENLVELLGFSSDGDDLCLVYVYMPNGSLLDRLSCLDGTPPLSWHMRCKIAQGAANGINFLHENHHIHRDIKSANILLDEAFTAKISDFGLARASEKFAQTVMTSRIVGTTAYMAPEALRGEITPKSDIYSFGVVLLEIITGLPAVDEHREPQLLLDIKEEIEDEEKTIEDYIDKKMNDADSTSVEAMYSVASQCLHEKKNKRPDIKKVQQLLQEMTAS
Briefly: Inhibition of IRAK4 (unknown origin) assessed as residual activity at 100 nM by KINOMEscan analysis relative to control.

The target of assay [5] is T2, Mitogen-activated protein kinase kinase kinase 2 (Homo sapiens) (UniProt Q9Y2U5).
T2 sequence (whole entry): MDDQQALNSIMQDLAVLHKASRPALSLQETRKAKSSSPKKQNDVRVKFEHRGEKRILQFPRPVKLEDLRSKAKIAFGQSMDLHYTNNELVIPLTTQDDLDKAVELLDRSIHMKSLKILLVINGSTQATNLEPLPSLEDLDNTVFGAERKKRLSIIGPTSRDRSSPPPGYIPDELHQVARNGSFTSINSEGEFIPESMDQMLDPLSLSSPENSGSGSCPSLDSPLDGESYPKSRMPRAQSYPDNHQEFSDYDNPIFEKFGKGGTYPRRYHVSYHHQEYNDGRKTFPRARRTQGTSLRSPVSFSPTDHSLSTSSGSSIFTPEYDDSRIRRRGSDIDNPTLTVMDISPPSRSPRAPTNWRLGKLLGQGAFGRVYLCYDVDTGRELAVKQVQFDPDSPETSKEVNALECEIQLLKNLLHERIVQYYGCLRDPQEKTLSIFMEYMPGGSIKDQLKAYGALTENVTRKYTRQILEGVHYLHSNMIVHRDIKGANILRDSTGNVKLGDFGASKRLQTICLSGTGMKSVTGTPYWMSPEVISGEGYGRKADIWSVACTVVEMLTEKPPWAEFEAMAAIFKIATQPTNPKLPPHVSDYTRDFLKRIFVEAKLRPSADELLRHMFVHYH
Kind of assay: Inhibition of MAP3K2 (unknown origin) assessed as residual activity at 100 nM by KINOMEscan analysis relative to control.

In assay [6] the target is Phosphatidylinositol 4-phosphate 3-kinase C2 domain-containing subunit beta (Homo sapiens) (UniProt O00750). Kind of assay: Inhibition of PIK3C2B (unknown origin) assessed as residual activity at 100 nM by KINOMEscan analysis relative to control.
Sequence of Phosphatidylinositol 4-phosphate 3-kinase C2 domain-containing subunit beta (Homo sapiens) (O00750 whole entry, the tested form may be a part): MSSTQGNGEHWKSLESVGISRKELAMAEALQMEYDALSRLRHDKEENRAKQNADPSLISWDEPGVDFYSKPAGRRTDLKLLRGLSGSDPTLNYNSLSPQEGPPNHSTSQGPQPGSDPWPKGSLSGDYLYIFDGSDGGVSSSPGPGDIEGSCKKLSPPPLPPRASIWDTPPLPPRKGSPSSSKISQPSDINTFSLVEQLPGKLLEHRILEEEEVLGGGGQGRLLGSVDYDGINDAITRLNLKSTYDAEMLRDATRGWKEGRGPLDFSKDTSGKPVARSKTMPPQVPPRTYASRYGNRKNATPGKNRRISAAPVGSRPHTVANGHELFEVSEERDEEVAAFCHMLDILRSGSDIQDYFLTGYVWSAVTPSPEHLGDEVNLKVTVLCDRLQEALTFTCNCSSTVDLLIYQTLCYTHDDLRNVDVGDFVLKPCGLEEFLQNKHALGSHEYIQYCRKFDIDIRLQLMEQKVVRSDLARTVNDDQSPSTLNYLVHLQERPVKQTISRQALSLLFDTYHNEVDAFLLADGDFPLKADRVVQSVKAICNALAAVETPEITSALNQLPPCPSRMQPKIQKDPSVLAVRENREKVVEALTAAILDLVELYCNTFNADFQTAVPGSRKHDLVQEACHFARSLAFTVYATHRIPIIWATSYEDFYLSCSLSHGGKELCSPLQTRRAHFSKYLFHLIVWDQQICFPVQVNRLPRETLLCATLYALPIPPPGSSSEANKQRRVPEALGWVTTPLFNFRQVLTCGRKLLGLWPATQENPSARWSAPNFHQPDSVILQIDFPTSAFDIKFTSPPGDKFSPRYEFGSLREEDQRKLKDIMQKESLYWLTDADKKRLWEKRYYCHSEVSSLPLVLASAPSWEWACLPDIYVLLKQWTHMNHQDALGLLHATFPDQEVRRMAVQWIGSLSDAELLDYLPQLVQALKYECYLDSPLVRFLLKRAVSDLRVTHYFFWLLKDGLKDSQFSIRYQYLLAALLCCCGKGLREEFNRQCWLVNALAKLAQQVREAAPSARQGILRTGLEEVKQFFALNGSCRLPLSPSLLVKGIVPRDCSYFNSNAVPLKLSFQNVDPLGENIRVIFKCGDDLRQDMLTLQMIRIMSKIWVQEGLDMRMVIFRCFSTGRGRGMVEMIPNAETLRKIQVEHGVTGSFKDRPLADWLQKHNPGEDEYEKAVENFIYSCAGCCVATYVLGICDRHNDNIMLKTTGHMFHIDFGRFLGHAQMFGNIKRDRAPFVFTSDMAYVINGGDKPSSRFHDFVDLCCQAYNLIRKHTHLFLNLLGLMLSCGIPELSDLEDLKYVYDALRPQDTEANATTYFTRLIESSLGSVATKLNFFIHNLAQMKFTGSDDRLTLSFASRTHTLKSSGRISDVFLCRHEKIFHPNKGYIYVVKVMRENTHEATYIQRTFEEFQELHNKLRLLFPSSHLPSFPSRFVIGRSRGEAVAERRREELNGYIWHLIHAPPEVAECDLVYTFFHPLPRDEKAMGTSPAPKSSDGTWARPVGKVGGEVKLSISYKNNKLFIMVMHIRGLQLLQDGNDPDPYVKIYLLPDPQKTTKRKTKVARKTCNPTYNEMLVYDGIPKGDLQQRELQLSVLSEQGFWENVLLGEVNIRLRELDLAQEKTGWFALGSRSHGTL
Assay [7] deals with Serine/threonine-protein kinase pim-3 (Homo sapiens) (UniProt Q86V86). Kind of assay: Inhibition of PIM3 (unknown origin) assessed as residual activity at 100 nM by KINOMEscan analysis relative to control.
In assay [8] the target is T3, Receptor-interacting serine/threonine-protein kinase 1 (Homo sapiens) (UniProt Q13546).
T3 sequence (whole entry): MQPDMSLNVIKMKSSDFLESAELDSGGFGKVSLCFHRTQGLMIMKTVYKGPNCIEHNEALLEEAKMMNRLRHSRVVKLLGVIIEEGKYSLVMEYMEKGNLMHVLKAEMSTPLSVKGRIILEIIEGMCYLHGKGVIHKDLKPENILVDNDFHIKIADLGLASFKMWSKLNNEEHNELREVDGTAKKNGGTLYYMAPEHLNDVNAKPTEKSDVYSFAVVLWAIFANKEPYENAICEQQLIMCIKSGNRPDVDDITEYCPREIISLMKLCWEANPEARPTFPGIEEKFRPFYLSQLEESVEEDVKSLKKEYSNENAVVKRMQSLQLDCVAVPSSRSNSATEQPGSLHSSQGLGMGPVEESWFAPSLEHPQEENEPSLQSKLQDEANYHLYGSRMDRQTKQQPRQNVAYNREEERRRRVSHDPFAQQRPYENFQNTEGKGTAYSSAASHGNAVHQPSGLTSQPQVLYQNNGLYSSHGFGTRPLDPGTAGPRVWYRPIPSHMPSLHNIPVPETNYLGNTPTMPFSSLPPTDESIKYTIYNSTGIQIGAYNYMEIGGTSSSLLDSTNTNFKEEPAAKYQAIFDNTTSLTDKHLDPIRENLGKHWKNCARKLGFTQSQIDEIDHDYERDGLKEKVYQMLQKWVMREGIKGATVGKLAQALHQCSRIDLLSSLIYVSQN
Briefly: Inhibition of RIPK1 (unknown origin) assessed as residual activity at 100 nM by KINOMEscan analysis relative to control.

The target in assay [9] is STE20-like serine/threonine-protein kinase (Homo sapiens) (UniProt Q9H2G2). Kind of assay: Inhibition of SLK (unknown origin) assessed as residual activity at 100 nM by KINOMEscan analysis relative to control.
Sequence of STE20-like serine/threonine-protein kinase (Homo sapiens) (Q9H2G2 whole entry, looked up): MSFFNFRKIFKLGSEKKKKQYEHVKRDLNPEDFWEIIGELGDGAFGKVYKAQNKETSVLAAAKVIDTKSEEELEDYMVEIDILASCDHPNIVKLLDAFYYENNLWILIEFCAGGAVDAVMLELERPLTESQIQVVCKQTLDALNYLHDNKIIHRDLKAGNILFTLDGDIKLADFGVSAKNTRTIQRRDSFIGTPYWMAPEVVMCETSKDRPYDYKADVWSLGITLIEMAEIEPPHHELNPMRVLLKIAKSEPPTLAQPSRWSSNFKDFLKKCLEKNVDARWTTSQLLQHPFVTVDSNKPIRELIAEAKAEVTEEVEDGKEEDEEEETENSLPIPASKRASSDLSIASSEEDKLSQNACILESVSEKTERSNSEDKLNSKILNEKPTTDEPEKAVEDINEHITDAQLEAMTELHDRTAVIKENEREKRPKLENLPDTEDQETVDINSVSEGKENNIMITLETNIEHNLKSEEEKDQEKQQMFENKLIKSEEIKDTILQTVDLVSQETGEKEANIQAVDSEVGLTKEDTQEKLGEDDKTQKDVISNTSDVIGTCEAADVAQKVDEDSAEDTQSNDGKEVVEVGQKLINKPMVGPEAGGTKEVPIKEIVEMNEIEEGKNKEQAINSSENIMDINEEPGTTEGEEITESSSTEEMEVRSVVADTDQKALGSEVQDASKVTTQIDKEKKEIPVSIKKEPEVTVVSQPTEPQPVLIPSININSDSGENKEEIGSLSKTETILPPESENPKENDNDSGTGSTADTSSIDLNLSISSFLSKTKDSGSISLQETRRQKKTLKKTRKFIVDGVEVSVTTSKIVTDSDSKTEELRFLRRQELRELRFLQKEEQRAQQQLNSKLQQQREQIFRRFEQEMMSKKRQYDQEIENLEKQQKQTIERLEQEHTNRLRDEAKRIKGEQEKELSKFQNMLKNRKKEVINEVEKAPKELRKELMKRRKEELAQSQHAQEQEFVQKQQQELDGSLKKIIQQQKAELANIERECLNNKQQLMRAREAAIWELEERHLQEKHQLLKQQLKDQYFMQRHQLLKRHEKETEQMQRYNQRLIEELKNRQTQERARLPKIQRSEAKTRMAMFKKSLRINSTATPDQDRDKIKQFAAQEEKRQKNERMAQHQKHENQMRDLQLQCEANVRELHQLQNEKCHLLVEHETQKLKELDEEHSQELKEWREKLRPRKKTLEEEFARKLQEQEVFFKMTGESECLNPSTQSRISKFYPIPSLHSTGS
For assay [10], the target named is Serine/threonine-protein kinase 35 (Homo sapiens) (UniProt Q8TDR2). Briefly: Inhibition of STK35 (unknown origin) assessed as residual activity at 100 nM by KINOMEscan analysis relative to control.
Sequence of Serine/threonine-protein kinase 35 (Homo sapiens) (Q8TDR2 whole entry): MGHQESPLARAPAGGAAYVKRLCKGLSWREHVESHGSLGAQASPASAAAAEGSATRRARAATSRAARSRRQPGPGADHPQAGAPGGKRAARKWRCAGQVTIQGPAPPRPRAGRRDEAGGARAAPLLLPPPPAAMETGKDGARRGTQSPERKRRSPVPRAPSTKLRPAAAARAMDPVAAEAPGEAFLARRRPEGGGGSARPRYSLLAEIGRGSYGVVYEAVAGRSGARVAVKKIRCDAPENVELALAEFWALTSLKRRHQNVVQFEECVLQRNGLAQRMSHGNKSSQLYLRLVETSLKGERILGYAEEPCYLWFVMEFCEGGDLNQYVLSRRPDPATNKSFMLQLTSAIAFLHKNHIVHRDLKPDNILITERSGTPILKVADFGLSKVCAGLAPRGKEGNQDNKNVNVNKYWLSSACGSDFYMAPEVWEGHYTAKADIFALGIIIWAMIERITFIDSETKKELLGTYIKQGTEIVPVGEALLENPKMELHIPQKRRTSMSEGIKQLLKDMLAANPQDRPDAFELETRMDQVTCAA

As to `COc1cc2ncnc(N[C@H](C)c3cccc4ccccc34)c2cc1OC`, the Activity was determined as 92% in assay [1]; 100% in [2]; 91% in assay [3]; 94% in [4]; 87% in [5]; 81% in [6]. The Activity in [7] came out at 87%; in assay [8], 23%; in assay [9] it was 100%; in [10], 98%.
